# Test results published in patent US20250382239A1, “COMPOSITIONS FOR ENHANCING NITROGEN FERTILIZERS BY INCORPORATING ANTI-OXIDANT MOIETIES AND METHODS FOR USE THEREOF” (Verdesian Life Sciences U.S., LLC, priority 2022, published 2025).
# Tested on: urease enzyme
# Assay: Draeger tube NH3 volatilization screening of urease inhibitor compositions applied on urea prills on soil
# Set-up: NH3 Draeger tube reading: unit not given here
# Conditions: for urease enzyme inhibitory properties: exposed to soil alone or in combination with urea-containing fertilizer
# Protocol: tBHQ (main active ingredient (AI)), solvents, additives (co-Actives) were obtained from commercial vendors. Draeger tube protocol was developed and used soils from NCSU Ag research facility at Oxford, North Carolina. Samples were prepared by co-dissolution in the appropriate solvent by rolling on a sample roller for 2-4 hours at ambient temperature and allowed to stand over weekend to make sure there was no haziness and/or precipitate that developed. Typical sample size was 4-4.5 g in a 12 mL cylindrical glass vial.
# The following candidates were tBHQ+[x co-Active+y Solvent] where x and y varied.
compound,measurement,setting,value
NC(N)=O [Urea],NH3 Draeger tube reading,"Round 10 (Table 11), 18 hrs",0
same,NH3 Draeger tube reading,"Round 10 (Table 11), 24 hrs",0
same,NH3 Draeger tube reading,"Round 10 (Table 11), 42 hrs",125
same,NH3 Draeger tube reading,"Round 10 (Table 11), 48 hrs",150
same,NH3 Draeger tube reading,"Round 10 (Table 11), 66 hrs",150
same,NH3 Draeger tube reading,"Round 10 (Table 11), 90 hrs",150
same,NH3 Draeger tube reading,"Round 10 (Table 11), 120 hrs",150
same,NH3 Draeger tube reading,"Round 10 (Table 11), 187 hrs",150
same,NH3 Draeger tube reading,"Round 10 (Table 11), 210 hrs",150
same,NH3 Draeger tube reading,"Round 10 (Table 11), 266 hrs",150
same,NH3 Draeger tube reading,"Round 10 (Table 11), 288 hrs",150
same,NH3 Draeger tube reading,"Round 10 (Table 11), 330 hrs",150
same,NH3 Draeger tube reading,"Round 10 (Table 11), 354 hrs",150
same,NH3 Draeger tube reading,"Round 10 (Table 11), 381 hrs",150
same,NH3 Draeger tube reading,"Round 10 (Table 11), […]",150
same,NH3 Draeger tube reading,"Round 11 (Table 12), 16 hrs",0
same,NH3 Draeger tube reading,"Round 11 (Table 12), 24 hrs",0
same,NH3 Draeger tube reading,"Round 11 (Table 12), 40 hrs",12
same,NH3 Draeger tube reading,"Round 11 (Table 12), 48 hrs",36
same,NH3 Draeger tube reading,"Round 11 (Table 12), 64 hrs",125.4
same,NH3 Draeger tube reading,"Round 11 (Table 12), 88 hrs",150
same,NH3 Draeger tube reading,"Round 11 (Table 12), 160 hrs",150
same,NH3 Draeger tube reading,"Round 11 (Table 12), 184 hrs",150
same,NH3 Draeger tube reading,"Round 11 (Table 12), 232 hrs",150
same,NH3 Draeger tube reading,"Round 11 (Table 12), 256 hrs",150
same,NH3 Draeger tube reading,"Round 11 (Table 12), […]",150
same,NH3 Draeger tube reading,"Round 12 (Table 13), 15 hrs",0
same,NH3 Draeger tube reading,"Round 12 (Table 13), 23 hrs",0
same,NH3 Draeger tube reading,"Round 12 (Table 13), 39 hrs",31
same,NH3 Draeger tube reading,"Round 12 (Table 13), 48 hrs",118
same,NH3 Draeger tube reading,"Round 12 (Table 13), 66 hrs",150
same,NH3 Draeger tube reading,"Round 12 (Table 13), 90 hrs",150
same,NH3 Draeger tube reading,"Round 12 (Table 13), 111 hrs",150
same,NH3 Draeger tube reading,"Round 12 (Table 13), 159 hrs",150
same,NH3 Draeger tube reading,"Round 12 (Table 13), 192 hrs",150
same,NH3 Draeger tube reading,"Round 12 (Table 13), 216 hrs",150
same,NH3 Draeger tube reading,"Round 12 (Table 13), 239 hrs",150
same,NH3 Draeger tube reading,"Round 12 (Table 13), 260 hrs",150
same,NH3 Draeger tube reading,"Round 12 (Table 13), 283 hrs",150
same,NH3 Draeger tube reading,"Round 12 (Table 13), 304 hrs",150
same,NH3 Draeger tube reading,"Round 12 (Table 13), 327 hrs",150
same,NH3 Draeger tube reading,"Round 12 (Table 13), 357 hrs",150
same,NH3 Draeger tube reading,"Round 12 (Table 13), 375 hrs",150
same,NH3 Draeger tube reading,"Round 12 (Table 13), […]",150
"Oc1ccc(O)cc1 [hydroquinone, reference compound]",urease enzyme inhibitory properties,,significantly less efficacious urease enzyme inhibition properties
CC(C)(C)c1cc(O)ccc1O [tert-butylhydroquinone],urease enzyme inhibitory properties,,strong urease enzyme inhibitory properties
